Patent US10105365B2, “Solid antiviral dosage forms” (AbbVie Inc., priority 2014, dated 2018)

Columns and labels:
[1] = Sink Conditions dissolution testing of Formulation C5-12; type: physicochemical; settings: N = 6
Protocol: The release profiles of Formulation C5-12 of Example 1 were evaluated in a Sink Conditions dissolution study. The study was conducted in 900 mL of dissolution medium using a standard USP dissolution Apparatus 2 (paddle) operating at 100 RPM at 37±0.5° C. The dissolution medium was a 0.05 M sodium phosphate buffer pH 6.8 with 15 mM cTAB as a surfactant.

[2] = Human pharmacokinetic study, Example 4 Arm II (single dose, crossover); type: in vivo; settings: for AUC(0-inf): read-out: AUC∞, geometric mean; for concentration at 24 h: read-out: C24, geometric mean
Protocol: Formulation C5-12 and a second formulation were tested in Arm II of the study. Adult male and female subjects (N=30 for combined Arm I and Arm II studies) in general good health were selected to participate in the study according to the selection criteria. Subjects meeting the selection criteria were randomly assigned to one of the Regimen sequences as shown below in Table 4-A.
Study drug was administered as provided below in Table 4-B.
Each study regimen was taken orally with approximately 240 mL of water approximately 30 minutes after the start of standardized breakfast. Study regimens were administered orally in the morning on Study Day 1 of each period. For Regimen A the evening dose of the Single Tablet was taken orally with approximately 240 mL of water approximately 30 minutes after the start of the evening snack. Serial blood samples for pharmacokinetic analysis were collected 72 hours after dosing in each period.
The data presented in Tables 4-C through 4-G are preliminary data and are subject to database lock and final data verification.

[3] = Human pharmacokinetic study, Example 4 Arm III (14-day multiple dose, steady state); type: in vivo; settings: three Formulation C5-12 tablets daily for 14 days, non-fasting
[4] = Human pharmacokinetic study, Example 5 Arm I (single dose, replicated crossover); type: in vivo; settings: single dose, non-fasting; for AUC(0-inf) / Cmax: both sexes, human, in vivo, oral
Protocol: (§1) A Phase 1, non-fasting, open-label, two-arm, four-period, randomized, crossover study was conducted to compare and characterize the pharmacokinetics of (i) Triple Tablet when co-administered with Single Tablet, and (ii) Formulation C5-12 as discussed below. Part 1 was a single dose, two-treatment, randomized, four period, two sequence replicated crossover study with 88 subjects. Doses in the four periods were separated by at least 10 days. Part 2 was a multiple-dose, two-treatment, two period, randomized crossover study with 66 subjects. Dosing in each period was 14 days and doses in the two periods were separated by at least 10 days.
(§2) Adult male and female subjects in general good health were selected to participate in the study according to the selection criteria. Subjects meeting the selection criteria were randomly assigned to one of the sequences of Regimens A and B (four sequences for Arm I and two sequences for Arm II) as shown below in Table 5-A.
(§3) Study drug was administered as provided below in Table 5-B.
(§4) Each study regimen was taken orally with approximately 240 mL of water approximately 30 minutes after the start of standardized breakfast. Study regimens were administered orally in the morning on Study Day 1 of each period. Serial blood samples for pharmacokinetic analysis were collected 72 hours after dosing in each period.
Tables 5-C, 5-D, 5-E, and 5-F below report the Arm I pharmacokinetic data for Formulation C5-12 (separately reported for each of Compounds 1, 2, 3, and 4). Table 5-G presents the results of a relative bioavailability and 90% confidence interval analysis of the pharmacokinetic data for Formulation C5-12 relative to the reference regimen. The data presented in Tables 5-C through 5-G are preliminary data and are subject to database lock and final data verification by the statistician.

[5] = Human pharmacokinetic study, Example 5 Arm II (multiple dose, crossover); type: in vivo; settings: for AUC: read-out: AUC24, geometric mean; for concentration at 24 h: read-out: C24, geometric mean
Protocol: as §1, §2, §3, §4

[6] = type: physicochemical
Text: Moreover, hot melt extrusion, a method commonly used to prepare amorphous solid dispersions, often involves the use of high temperature to assist the formation of a melt that is composed of all components of the final solid dispersion.
This allows the preparation of smaller solid dosage forms (e.g., tablets) comprising all three drug substances.

[7] = Example 4 Arm II, single dose, non-fasting, Regimen E (C5-12): three Formulation C5-12 tablets in the morning, N = 13
[8] = both sexes, human, blood, oral, 3 Formulation C5-12 tablets, Example 4 Arm II, single dose, non-fasting, Regimen E (C5-12): three Formulation C5-12 tablets in the morning, N = 13
[9] = both sexes, human, blood, oral, Example 4 Arm II, single dose, non-fasting, Regimen A (reference regimen): two Triple Tablets + one Single Tablet morning, one Single Tablet evening, N = 13
[10] = Regimen A (C5-12): three film-coated Formulation C5-12 tablets, N = 172
[11] = Regimen B (reference regimen): two Triple Tablets + one Single Tablet morning, one Single Tablet evening, N = 171
[12] = Example 5 Arm II, multiple dose 14 days, non-fasting, Regimen B (reference regimen): two Triple Tablets + one Single Tablet morning, one Single Tablet evening, N = 63
[13] = both sexes, human, blood, oral, 3 film-coated Formulation C5-12 tablets daily, Example 5 Arm II, multiple dose 14 days, non-fasting, Regimen A (C5-12): three film-coated Formulation C5-12 tablets daily, N = 63
[14] = both sexes, human, blood, oral, Example 5 Arm II, multiple dose 14 days, non-fasting, Regimen B (reference regimen): two Triple Tablets + one Single Tablet morning, one Single Tablet evening, N = 63

CC(C)c1nc(CN(C)C(=O)N[C@H](C(=O)N[C@@H](Cc2ccccc2)C[C@H](O)[C@H](Cc2ccccc2)NC(=O)OCc2cncs2)C(C)C)cs1 [Compound 3, 1,3-thiazol-5-ylmethyl N-[(2S,3S,5S)-3-hydroxy-5-[(2S)-3-methyl-2-{[methyl({[2-(propan-2-yl)-1,3-thiazol-4-yl]methyl})carbamoyl]-amino}butanamido]-1,6-diphenylhexan-2-yl]carbamate, reference compound]
% Released ([1]; 1 hour, 900 mL 0.05 M sodium phosphate buffer pH 6.8, 15 mM cTAB, USP Apparatus 2, 100 RPM, 37 °C): 58%
% Released ([1]; 4 hours, pH 6.8 buffer, 15 mM cTAB): 99%
% Released ([1]; 6 hours, pH 6.8 buffer, 15 mM cTAB): 100%
% Released ([1]; 8 hours, pH 6.8 buffer, 15 mM cTAB): 103%
% Released ([1]; 12 hours, pH 6.8 buffer, 15 mM cTAB): 102%
% Released ([1]; 16 hours, pH 6.8 buffer, 15 mM cTAB): 100%
Cmax, geometric mean ([2]; Example 4 Arm II, single dose, non-fasting, Regimen A (reference regimen): two Triple Tablets + one Single Tablet morning, one Single Tablet evening, N = 13): 1.17 µg/mL
AUCt, geometric mean [2, 7]: 8.16 µg·h/mL
Cmax, geometric mean [2, 7]: 1.16 µg/mL
t1/2 [2, 7]: 4.2 h
AUC(0-inf) [2, 8]: 8.27 µg·h/mL
concentration at 24 h [2, 8]: 0.0388 µg/mL
Tmax ([2]; both sexes, human, blood, oral, 3 Formulation C5-12 tablets, Example 4 Arm II, single dose, non-fasting, Regimen E (C5-12): three Formulation C5-12 tablets in the morning, N = 13, read-out: Tmax): 4.9 h
half-life [2, 9]: 4.9 h
concentration at 24 h [2, 9]: 0.037 µg/mL
AUC(0-t) ([2]; both sexes, human, in vivo, Example 4 Arm II, single dose, non-fasting, Regimen A (reference regimen): two Triple Tablets + one Single Tablet morning, one Single Tablet evening, N = 13, read-out: AUCt, geometric mean): 7.71 µg·h/mL
AUC(0-inf) ([2]; both sexes, human, in vivo, Example 4 Arm II, single dose, non-fasting, Regimen A (reference regimen): two Triple Tablets + one Single Tablet morning, one Single Tablet evening, N = 13): 7.9 µg·h/mL
C24, arithmetic mean, % CV ([2]; both, human, in vivo, 24 h): (46.3, 62) ng/mL
Tmax ([3]; human, in vivo, oral, 3 Formulation C5-12 tablets daily, Day 1, N = 14): 5.4 h
concentration at 24 h ([3]; human, in vivo, oral, 3 Formulation C5-12 tablets daily, Day 1, N = 14, read-out: C24, geometric mean): 0.0347 µg/mL
Tmax ([3]; human, in vivo, oral, 3 Formulation C5-12 tablets daily, Day 14, N = 14): 4.7 h
AUC ([3]; human, in vivo, oral, 3 Formulation C5-12 tablets daily, Day 14, N = 14, read-out: AUC24, geometric mean): 10.7 µg·h/mL
concentration at 24 h ([3]; human, in vivo, oral, 3 Formulation C5-12 tablets daily, Day 14, N = 14, read-out: C24, geometric mean): 0.04 µg/mL
Cmax ([3]; human, in vivo, oral, 3 Formulation C5-12 tablets daily, Day 14, N = 14, read-out: Cmax, geometric mean): 1.43 µg/mL
AUC24, geometric mean ([3]; Day 1, N = 14): 7.23 µg·h/mL
Cmax, geometric mean ([3]; Day 1, N = 14): 0.921 µg/mL
t1/2 ([3]; Day 14, N = 14): 4.0 h
β ([3]; Day 14, N = 14): 0.174 h⁻¹
AUC(0-inf) ([4]; 3 film-coated Formulation C5-12 tablets, Regimen A (C5-12): three film-coated Formulation C5-12 tablets, N = 172, read-out: AUC∞, geometric mean): 8.09 µg·h/mL
Cmax ([4]; 3 film-coated Formulation C5-12 tablets, Regimen A (C5-12): three film-coated Formulation C5-12 tablets, N = 172, read-out: Cmax, geometric mean): 1.13 µg/mL
AUC(0-inf) ([4]; Regimen B (reference regimen): two Triple Tablets + one Single Tablet morning, one Single Tablet evening, N = 171, read-out: AUC∞, geometric mean): 8.75 µg·h/mL
Cmax ([4]; Regimen B (reference regimen): two Triple Tablets + one Single Tablet morning, one Single Tablet evening, N = 171, read-out: Cmax, geometric mean): 1.43 µg/mL
AUCt, geometric mean [4, 10]: 7.45 µg·h/mL
Tmax, first value (geometric mean) [4, 10]: 4.0 h
t1/2 [4, 10]: 4.52 h
AUCt, geometric mean [4, 11]: 8.61 µg·h/mL
t1/2 [4, 11]: 4.47 h
Cmax, arithmetic mean, % CV [5, 12]: (1800,44) ng/mL
Cmax, geometric mean [5, 12]: 1.68 µg/mL
half-life [5, 13]: 4.6 h
AUC [5, 13]: 8.67 µg·h/mL
concentration at 24 h [5, 13]: 0.0362 µg/mL
Cmax ([5]; both sexes, human, blood, oral, 3 film-coated Formulation C5-12 tablets daily, Example 5 Arm II, multiple dose 14 days, non-fasting, Regimen A (C5-12): three film-coated Formulation C5-12 tablets daily, N = 63, read-out: Cmax, geometric mean): 1.34 µg/mL
AUC [5, 14]: 9.58 µg·h/mL
concentration at 24 h [5, 14]: 0.0351 µg/mL
Cmax,ss lower than Cmax,ss for the reference regimen ([5]; both, human, in vivo, 14 days): 21%
Exposures (C24,ss and AUC24,ss) versus the reference regimen ([5]; in vivo): bioequivalent
Degradation in hot melt extrusion [6]: well within the acceptable levels
Temperature beyond which degradation can reach unacceptable levels [6]: > 140 °C
